Assay results published in patent US9920387B2, “Strain of marine oil-degrading bacteria, compounds obtained by fermentation and their applications” (THIRD INSTITUTE OF OCEANOGRAPHY,STATE OCEANIC ADMINISTRATION, priority 2014, dated 2018).
*1 amine or outer side, *2 acyl side, *3 side chain or, on linkers, in order; H or OH if unused. Where a SMILES comes first, the peptide text is derived from it. Bridges are numbered along the chain shown (N, C = ends). [ ]: non-standard residue; d: D form. X1 = CC(C)CCCCCCCCC[C@H](CC(=O)[*:1])O[*:2]

How the values were obtained:
[1] = Determination of biosurfactant CMC values; assay type: physicochemical; conditions: for CMC: water solution
Excerpt: Determination method of biosurfactant CMC values: prepare different concentrations of water solution from pure biosurfactants to be determined, and measure its surface tension with surface tension meter. With the increase of surface activity (concentration), the surface tension of water solution gradually […]. The surface tension stops decreasing when the concentration increases to a certain level. The amount of surfactant corresponding to this critical surface tension is CMC value.

[2] = Determination of biosurfactant MAD (Minimum Active Dose) by oil expansion experiment; assay type: physicochemical
Excerpt: Determination method of biosurfactant MAD (Minimum Active Dose) values: prepare different concentrations of water solution from pure biosurfactants to be determined, and measure the oil expansion activity through oil expansion experiment. With the decrease of concentration, the oil expansion ability of water solution becomes weaker and weaker, and completely disappears when the concentration decreases to a certain level. The amount of surfactant at the time of oil expansion ability disappearing is the MAD value.

aeromonas hydrophila = test: Antibacterial activity, filter paper method; assay type: cell-based; conditions: bacteriostasis experiment
Excerpt: (§1) Antibacterial activity test method: use filter paper method to detect antibacterial activity of biosurfactant produced by fermentation of strain Alcanivorax dieselolei T6-6. The indicator bacteria are Gram-negative bacteria, Gram-positive bacteria, endophytic pathogenic fungus in tea tree and yeasts. Specific steps: coat the well-shaken indicator bacteria on the culture plate, stick filter paper on each scribe region, and drip surfactant on filter paper. The control group is the methanol solvent of same amount. After bacteria are inverted cultured in constant temperature incubation at 28° C. for a certain period (different indicator bacteria have different growth cycles; bacteria grow quickly, but endophytic fungus in tea tree should grow 3-5 days), and observe the results to detect inhibition zone. If there is an inhibition zone, its size should be measured.
(§2) DH5 alpha, aeromonas hydrophila and Campbell vibrio.

E. coli. DH5 alpha = test: Antibacterial activity, filter paper method; assay type: cell-based; conditions: bacteriostasis experiment
Excerpt: as §1, §2

Campbell vibrio = test: Antibacterial activity, filter paper method; assay type: cell-based; conditions: bacteriostasis experiment
Excerpt: as §1, §2

[3] = Oil expansion activity at different temperatures and pH values; assay type: physicochemical
Description: Determination method of biosurfactant oil expansion activity: Take a culture dish, add water, and add 0.1 ml hexadecane on the water surface to form oil film. Add the fermentation liquid from the shake flask to the center of oil film to make the central film squeezed to form a circle, the diameter of which positively correlates to the concentration and activity of the biosurfactant. Strains with cycle diameter more than 3 cm are retained for further study. Set pH value in the range of 2 to 10 to determine effect of pH on lysine ester produced by the strain Alcanivorax dieselolei T6-6. Oil expansion diameter varies from 3.6 to 3.9 for lysine ester produced by the strain Alcanivorax dieselolei T6-6 with small fluctuation. It has a good acid and base resistance, and the activity is the highest at pH=8. Considering the structure, it can be inferred that this material is alkaline. And also, when adding a few drops of ammonia expansion on the running TLC plate, the substance will expand more fully, which also proves that it is alkaline.
Treat the pure lysine ester produced by strain Alcanivorax dieselolei T6-6 at temperatures of 20° C., 40° C., 60° C., 80° C. and 100° C. for one hour, and then determine its activity. […] Good thermal stability makes it possible for the substance to be used in high temperature fields.

hepatoma cells 7402 = test: Cytotoxic activity test, Cell Counting Kit-8; assay type: cell-based; conditions: 100 ug/ml, 48 hours
Excerpt: (§3) Cytotoxic activity test method: measure cytotoxic activity using a Cell Counting Kit-8 (CCK-8 kit for short and of Dojindo Laboratories, Japan), namely, […]. The human CCK octapeptide ELISA is a quick high-sensitivity detection kit based on WST-8 and widely applied to cell proliferation and cytotoxic activity. WST-8 is a compound similar to the MTT. With the presence of electronic coupling reagent, WST-8 can be reduced by some dehydrogenases in mitochondria and produce orange formazan. The more and faster the cell proliferation is, the deeper the color; the greater the cytotoxicity is, the lighter the color. For the same cells, the color depth has a linear relationship with the number of cells. Solvent DMSO is used in control group, and pure lysine ester produced by strain Alcanivorax dieselolei T6-6 dissolved in DMSO are used in experimental group. Cells are hepatoma cells 7402 and normal hepatocytes 7702 (available from Sino-US Joint Venture Biohermes Biomedical Technology Ltd). Medicinal concentration is 100 ug/ml, and operation is taken according to kit instruction, with each step repeated three times. After medication, […] is detected in cellular fluid after culturing for 48 hours. Cell toxicity results are shown in Table 8: The medicine-to-cell suppression rate=[negative group (DMSO)−experimental group (dosed)]/negative group (DMSO). […] Accordingly, the active substances of lysine ester generated by the strain Alcanivorax dieselolei T6-6 have better cytotoxic activity.

normal hepatocytes 7702 = test: Cytotoxic activity test, Cell Counting Kit-8; assay type: cell-based; conditions: 100 ug/ml, 48 hours
Excerpt: as §3

[4] = Liquid surface tension (automatic interfacial tensiometer); assay type: physicochemical
Description: Test method of liquid surface tension: Inoculate the Alcanivorax dieselolei T6-6 single bacterium into MSM medium on clean workbench (with 2% n-hexadecane as the sole carbon source), and culture it in constant temperature air bath shaker incubator (28° C., 200 rpm/min) until thalli obviously grow (about 3 to 5 days), during which take out 10 ml fermentation liquid every 24 hours, and measure its surface tension values using automatic interfacial tensiometer (Manufacturer: Chengde Precision Testing Machine Co., Ltd; Model: JZ-200-a automatic interface tensiometer). […] (For refrigeration of supernatant and hydrophobic layer stratified after centrifugation, the surface tension should be measured when it gets to the room temperature. Thus, the result is comparability and credibility). When measuring liquid surface tension, pour 10 ml fermentation liquid of A. dieselolei T6-6 at temperature of 25° C. into a weighing cup, place the weighing cup in the center of the tray, press “▴” to make the platinum ring deep into 5 mm to 7 mm in the liquid, press “●” to stop; if the peak needs to be kept, firstly press “peak” button, and then press “▾”, the display value will increase gradually, and finally stay at the maximum; this maximum value is the actually measured value of surface tension of liquid, and then press “●” to stop, after the maximum value is recorded, press “reset” button. […]

Phomaexigua var. exigua = test: Antibacterial activity, filter paper method; assay type: cell-based; conditions: 28° C.
Excerpt: as §1

Bacillus safensis = test: Antibacterial activity, filter paper method; assay type: cell-based; conditions: 28° C.
Excerpt: as §1

Bacillus rhizosphaerae = test: Antibacterial activity, filter paper method; assay type: cell-based; conditions: 28° C.
Excerpt: as §1

Rhodotorula mucilaginosa = test: Antibacterial activity, filter paper method; assay type: cell-based; conditions: 28° C.
Excerpt: as §1

Bacillus plakortidis = test: Antibacterial activity, filter paper method; assay type: cell-based; conditions: 28° C.
Excerpt: as §1

[5] = tested on: Ornithinibacillus bavariensis; test: Antibacterial activity, filter paper method; assay type: cell-based; conditions: 28° C.
Excerpt: as §1

[6] = tested on: Lysinibacillus sphaericus; test: Antibacterial activity, filter paper method; assay type: cell-based; conditions: 28° C.
Excerpt: as §1

Bacillus thuringiensis = test: Antibacterial activity, filter paper method; assay type: cell-based; conditions: 28° C.
Excerpt: as §1

Pestalotiopsistheae = test: Antibacterial activity, filter paper method; assay type: cell-based; conditions: 28° C.
Excerpt: as §1

[7] = Biosurfactant emulsifying property (emulsion stable value); assay type: physicochemical
Description: In order to understand the emulsifying activity of lysine ester produced by strain Alcanivorax dieselolei T6-6, we determined the emulsifying stability value of lysine ester produced by strain Alcanivorax dieselolei T6-6 and the chemical surfactants Tween 20 and Triton X-100 against olive oil, n-hexane, dimethylbenzene, hexadecane and petroleum ether. Determination method of biosurfactant emulsifying property: add 5 ml commercially available diesel No. 0 and 5 ml surfactant solution (1%) into a test tube, treat it with ultrasonic generator at 800 W for 40 s, and measure the emulsion and oil phase at different times (0 to 24 hours). Emulsion stable value (Es %)=emulsified layer height (cm)/oil phase height (cm)×100. […] Lysine ester produced by strains Alcanivorax dieselolei T6-6 has a good emulsifying activity (83±1%) on olive oil, and can maintain […] at room temperature. Its emulsifying activity on four other organics is also more than 75%. Good emulsifying activity makes it greatly valuable in environmental pollution control.

With CC(C)CCCCCCCCC[C@@H]1CC(=O)N[C@@H](CCC(=O)O)C(=O)N[C@@H](CC(C)C)C(=O)N[C@H](CC(C)C)C(=O)N[C@@H](C(C)C)C(=O)N[C@@H](CC(=O)O)C(=O)N[C@H](CC(C)C)C(=O)N[C@@H](CC(C)C)C(=O)O1 [Surfactin] (EL[dL]VD[dL]L; linker N-C via X1) as the compound, how does the CMC [1] read?
Its CMC is 45 mg/L.

With Triton X-100 as the compound, how does the MAD [2] read?
Its MAD is 0.3 ± 0.08 µg.

Which results are given for CCCCCCCCCCCCCC1CC(=O)N1CCCCC(N)C(=O)O (centres unmarked) [2-amino-6-(2-oxo-4-tridecyl-azetidine-1-yl) hexanoic acid]?
suppression effect (aeromonas hydrophila): no suppression effect; suppression effect (E. coli. DH5 alpha): no suppression effect; suppression effect (Campbell vibrio): no suppression effect; pH of highest activity ([3]; oil expansion experiment, pH 2 to 10): 8; oil expansion diameter ([3]; treated at 121° C. for 15 minutes): about 3.5 cm; medicine-to-cell suppression rate (hepatoma cells 7402): 92.74%; cell culture fluid OD600 (hepatoma cells 7402; DMSO control 1.667): 0.121; medicine-to-cell suppression rate (normal hepatocytes 7702): 67.32%; cell culture fluid OD600 (normal hepatocytes 7702; DMSO control 0.863): 0.282; surface tension of water after adding component ([4]; 300 ul unconcentrated surfactant added to 20 ml DDW, water alone 78.6): 32.3; surface tension reduced to ([4]; summary statement): 26-28 mN m-1; CMC value ([1]; summary statement): 32 mg 1-1; CMC [1]: 32 mg/L; MAD [2]: 0.105 ± 0.05 µg; Inhibition zone (Phomaexigua var. exigua): 16.3 mm; Inhibition zone (Bacillus safensis): 10.9 mm; Inhibition zone (Bacillus rhizosphaerae): 10.4 mm; Inhibition zone (Rhodotorula mucilaginosa): 12.1 mm; Inhibition zone (Bacillus plakortidis): 13.7 mm; Inhibition zone [5]: 14.2 mm; Inhibition zone [6]: 11.7 mm; Inhibition zone (Bacillus thuringiensis): 7.2 mm; Inhibition zone (Pestalotiopsistheae): 10.19 mm; emulsifying activity compared with Tween 20 and Triton X-100 ([7]; FIG. 12): higher emulsifying activity; emulsifying activity (emulsion stable value) ([7]; four other organics (n-hexane, dimethylbenzene, hexadecane, petroleum ether)): more than 75%; emulsifying activity (emulsion stable value) ([7]; olive oil): 83±1%; time emulsion is maintained ([7]; olive oil, room temperature): 48 h

With CCCCCCCCCCCCOS(=O)(=O)[O-].[Na+] [SDS] as the compound, how does the CMC [1] read?
Its CMC is 23 mg/L.

And the MAD [2]?
Its MAD is 6.0 ± 0.12 µg.

With Rhamnolipid as the compound, how does the CMC [1] read?
Its CMC is 50 mg/L.
